Like-named read-outs stand apart in the source and are kept apart here.

Data set [1] deals with Corn southern leaf blight. Nature of the data set: In vitro fungicidal activity, PDA colony diameter. Format: cell-based. The settings on record: 50 mg/kg, inhibition of colony diameter; read-out: Fungicidal activity (%) Corn southern leaf blight.
In the next data set the test system is Apple ring rot. Briefly: In vitro fungicidal activity, PDA colony diameter. It is filed as cell-based. The settings on record: inhibition of colony diameter. Put shortly: (§1)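 Mycelial plugs cut from the edge of 7-day PDA colonies placed on PDA containing 50 mg/kg compound or on compound-free PDA, grown 4 days. Colony diameters measured; percent inhibition calculated against untreated control.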

The test system of data set [2] is Capsicum phytophthora blight. Briefly: In vitro fungicidal activity, PDA colony diameter. Format: cell-based. The settings on record: 96 h. Put shortly:
as §1

In data set [3] the test system is Cercospora brown spot of peanut. Briefly: In vitro fungicidal activity, PDA colony diameter. Format: cell-based. Particulars: 96 h, 50 mg/kg, inhibition of colony diameter, read-out: Fungicidal activity (%) Cercospora brown spot of peanut.
The subject of a further data set is Rice bakanae disease. Briefly: In vitro fungicidal activity, PDA colony diameter. Format: cell-based. Particulars: read-out: Fungicidal activity (%) Rice bakanae disease.
Data set [4] concerns bean aphides (Aphis laburni Kaltenbach). Nature of the data set: Test of insecticidal activity against aphides (leaf immersion, checked after 96 h).
Protocol: The insecticidal activity against aphides is tested through the following steps: the tested aphides are bean aphides (Aphis laburni Kaltenbach), a normal colony fed with broad bean leaves in a laboratory. The pesticide is weighed, 1 mL DMF is added to dissolve the pesticide, then two drops of emulsifier, Tween-20 are added, and distilled water is added in an appropriate amount; the mixture is stirred to a homogeneous state to prepare pesticide solution at required concentration (see the following table for the specific concentration). […] In a control group, only emulsifier and solvent are added into distilled water, and the mixture is stirred to a homogeneous state.
The test system of the next data set is Wheat head blight. Briefly: whole plant or invertebrate. Format: cell-based. Particulars: Triticum aestivum, read-out: Fungicidal activity (%) Wheat head blight.
In another data set the test system is Maize borers. Nature of the data set: Test of insecticidal activity against maize borers (leaf immersion). Particulars: read-out: Mortalities (%) Maize borers.
For another data set, the system named is Armyworms. Nature of the data set: Test of insecticidal activity against armyworms (leaf immersion). Particulars: 600 mg/kg, 3-4 days.
A further data set has as its system Cucumber fusarium wilt. Nature of the data set: In vitro fungicidal activity, PDA colony diameter. It is filed as cell-based. The settings on record: 96 h, 50 mg/kg, inhibition of colony diameter, read-out: Fungicidal activity (%) Cucumber fusarium wilt.
The next data set concerns Cotton bollworms. Briefly: Test of insecticidal activity against cotton bollworms (pesticide mixed into feedstuff). The settings on record: read-out: Mortalities (%) Cotton bollworms.
For a further data set, the system named is Wheat sheath blight. Nature of the data set: In vitro fungicidal activity, PDA colony diameter. It is filed as cell-based. The settings on record: 50 mg/kg, inhibition of colony diameter; read-out: Fungicidal activity (%) Wheat sheath blight.
The next data set concerns Watermelon anthracnose. Briefly: In vitro fungicidal activity, PDA colony diameter. It is filed as cell-based. The settings on record: read-out: Fungicidal activity (%) Watermelon anthracnose.
The subject of the next data set is Potato late blight. Briefly: microbe, parasite or virus in culture. Format: cell-based. Particulars: Phytophthora infestans, 96 h, read-out: Fungicidal activity (%) Potato late blight.
The test system of a further data set is Tomato early blight. Briefly: In vitro fungicidal activity, PDA colony diameter. Format: cell-based, Alternaria solani. The settings on record: 50 mg/kg, inhibition of colony diameter; read-out: Fungicidal activity (%) Tomato early blight.
The test system of another data set is Sclerotinia rot of colza. Briefly: In vitro fungicidal activity, PDA colony diameter. It is filed as cell-based. Particulars: 96 h, 50 mg/kg, inhibition of colony diameter, read-out: Fungicidal activity (%) Sclerotinia rot of colza.
The subject of another data set is Rice sheath blight. Nature of the data set: In vitro fungicidal activity, PDA colony diameter. It is filed as cell-based. Particulars: read-out: Fungicidal activity (%) Rice sheath blight.
Data set [5] deals with mosquito larvae (Culer pipiens pallens). Nature of the data set: Test of insecticidal activity against mosquito larvae (checked after 24 h). The settings on record: 24 h, read-out: Mortalities (%) against mosquito larvae.
Where [6] appears, read: 50 mg/kg, inhibition of colony diameter.
Setting [7] is: Aphis, 96 h, read-out: Mortalities (%) against aphides.

Protocol for Cotton bollworms: Method of testing against cotton bollworms: the pesticide is mixed into the feedstuff, i.e., 3 mL prepared solution is added into about 27 g freshly prepared feedstuff; thus, required concentration is obtained by diluting by 10 times.

In the case of `CC1=NNC(=O)N(NS(=O)(=O)c2c(C)noc2C)C1` [Ia-30, 3,5-dimethyl-N-(6-methyl-3-oxo-2,3-dihydro-1,2,4-triazin-4(5H)-yl)-isoxazolyl-4-sulfonamide], the inhibition at 50 mg/kg was determined as 19.4% in data set [1]; 23.8% with Apple ring rot; 14.8% with Rice bakanae disease (setting [6]); 12.1% in the data set on Wheat head blight; 7.5% in the data set on Wheat sheath blight; 25% with Watermelon anthracnose (setting [6]). For the same molecule, the inhibition at 50 mg/kg turned out to be 20% with Tomato early blight and 14.3% in the data set with Rice sheath blight. Besides, the inhibition of growth at 50 mg/kg was found to be 11.5% in [2]; 19.2% in data set [3]; 23.1% with Cucumber fusarium wilt; 14.3% in the data set on Potato late blight; 12.5% in the data set with Sclerotinia rot of colza. Moreover, the mortality at 100 mg/kg in data set [4] (setting [7]) was determined as 45%. The mortality at 600 mg/kg was determined as 95% in data set [4] (setting [7]), 15% with Maize borers and 25% in the data set on Cotton bollworms. Further, the “Mortalities (%) Armyworms” value with Armyworms came out at 20%. Besides, the mortality at 10 mg/kg in data set [5] was determined as 35%.
As to `CC1=NNC(=O)N(NS(=O)(=O)c2cn(C)cn2)C1` [Ia-31, 1-methyl-N-(6-methyl-3-oxo-2,3-dihydro-1,2,4-triazin-4(5H)-yl)-1H-imidazolyl-4-sulfonamide], the inhibition at 50 mg/kg in data set [1] was 2.6%; in the data set with Apple ring rot, 29.4%; in the data set with Rice bakanae disease (setting [6]), 12.5%; with Wheat head blight, 17.2%; with Wheat sheath blight it was 47.1%; with Watermelon anthracnose (setting [6]), 28.1%. Moreover, the inhibition at 50 mg/kg in the data set with Tomato early blight stood at 16.1%; in the data set on Rice sheath blight (setting [6]), 5.8%. For the same molecule, the inhibition of growth at 50 mg/kg in data set [2] was 18.8%; in data set [3] it was 13%; with Cucumber fusarium wilt, 14.7%; in the data set with Potato late blight, 18.8%; in the data set with Sclerotinia rot of colza, 31.6%. Moreover, the results for the mortality at 10 mg/kg in data set [4] (setting [7]) and in data set [5] were 35% and 60%, respectively. Also, the mortality at 100 mg/kg in [4] (setting [7]) is 100%. Moreover, the mortality at 600 mg/kg in [4] (setting [7]) came to 100%; with Maize borers, 15%; in the data set with Cotton bollworms it was 5%. For the same molecule, the “Mortalities (%) Armyworms” value in the data set with Armyworms was found to be 10%.
As to `CC1=NNC(=O)N(NS(=O)(=O)c2cn(C)c(C)n2)C1` [Ia-32, 1,2-dimethyl-N-(6-methyl-3-oxo-2,3-dihydro-1,2,4-triazin-4(5H)-yl)-1H-imidazolyl-4-sulfonamide], the inhibition at 50 mg/kg in data set [1] is 7.7%; in the data set on Apple ring rot, 43.1%; with Rice bakanae disease it was 18.8%; in the data set with Wheat head blight it was 12.5%; with Wheat sheath blight, 30.9%; in the data set on Watermelon anthracnose, 18.8%. Also, the results for the inhibition at 50 mg/kg with Tomato early blight and in the data set on Rice sheath blight (setting [6]) were 16.1% and 10.5%, respectively. Further, the inhibition of growth at 50 mg/kg in [2] was 9.4%; in data set [3] it was 26.1%; in the data set with Cucumber fusarium wilt, 8.8%; in the data set with Potato late blight, 18.8%; in the data set with Sclerotinia rot of colza it was 15.8%. The mortality at 10 mg/kg in data set [4] (setting [7]) was determined as 30%; in data set [5] it was 20%. Further, the mortality at 100 mg/kg in data set [4] (setting [7]) stood at 100%. Besides, the mortality at 600 mg/kg in [4] (setting [7]) came to 100%; in the data set on Maize borers, 0%; in the data set on Cotton bollworms, 0%. Moreover, the “Mortalities (%) Armyworms” value in the data set on Armyworms is listed as 5%.
`CC1=NNC(=O)N(NS(=O)(=O)c2ccc3c(c2)CCO3)C1` [Ia-33, N-(6-methyl-3-oxo-2,3-dihydro-1,2,4-triazin-4(5H)-yl)-2,3-dihydrobenzofuran-5-sulfonamide]: the inhibition at 50 mg/kg in data set [1] worked out at 11.1%; in the data set with Apple ring rot, 9.5%; with Rice bakanae disease (setting [6]), 3.7%; in the data set with Wheat head blight, 33.3%; with Wheat sheath blight, 9.4%; in the data set with Watermelon anthracnose (setting [6]), 0%. The figures for the inhibition at 50 mg/kg in the data set on Tomato early blight and in the data set on Rice sheath blight (setting [6]) were 15% and 10.7%, respectively. Moreover, the inhibition of growth at 50 mg/kg in [2] was 19.2%; in data set [3], 11.5%; in the data set with Cucumber fusarium wilt, 5.1%; in the data set with Potato late blight, 19%; with Sclerotinia rot of colza, 12.5%. The mortality at 100 mg/kg in [4] (setting [7]) turned out to be 40%. The mortality at 600 mg/kg in data set [4] (setting [7]) worked out at 90%; with Maize borers, 0%; in the data set with Cotton bollworms, 0%. Also, the “Mortalities (%) Armyworms” value in the data set with Armyworms amounted to 5%. Moreover, the mortality at 10 mg/kg in data set [5] was 85%.
Turning to `CC1=NNC(=O)N(NS(=O)(=O)c2ccc3c(c2)OCCO3)C1` [Ia-34, N-(6-methyl-3-oxo-2,3-dihydro-1,2,4-triazin-4(5H)-yl)-2,3-dihydrobenzo[b][1,4]dioxin-6-sulfonamide], the inhibition at 50 mg/kg in data set [1] came to 10.3%; with Apple ring rot, 39.2%; in the data set with Rice bakanae disease (setting [6]), 12.5%; in the data set with Wheat head blight it was 10.9%; in the data set on Wheat sheath blight, 36.8%; in the data set with Watermelon anthracnose, 18.8%. Besides, the inhibition at 50 mg/kg in the data set on Tomato early blight was 16.1%; in the data set with Rice sheath blight (setting [6]), 4.7%. Besides, the inhibition of growth at 50 mg/kg in data set [2] is 18.8%; in data set [3], 13%; in the data set on Cucumber fusarium wilt, 8.8%; with Potato late blight, 3.1%; in the data set with Sclerotinia rot of colza it was 6.6%. Besides, in [4] (setting [7]), the mortality at 100 mg/kg was 35%. The mortality at 600 mg/kg in data set [4] (setting [7]) was 90%; in the data set on Maize borers it was 10%; in the data set with Cotton bollworms, 10%. For the same molecule, the “Mortalities (%) Armyworms” value in the data set with Armyworms was found to be 15%. Also, the mortality at 10 mg/kg in [5] amounted to 15%.
As to `CC1=NNC(=O)N(N(S(C)(=O)=O)S(C)(=O)=O)C1` [Ib-1, N-(6-methyl-3-oxo-2,3-dihydro-1,2,4-triazin-4(5H)-yl)-N-(methylsulfonyl)-methylsulfonylamide], the inhibition at 50 mg/kg in data set [1] is 12.5%; in the data set with Apple ring rot it was 20.7%; with Rice bakanae disease (setting [6]), 44.4%; in the data set with Wheat head blight it was 6.7%; in the data set on Wheat sheath blight, 56.8%; in the data set on Watermelon anthracnose (setting [6]), 20.8%. The results for the inhibition at 50 mg/kg in the data set with Tomato early blight and in the data set on Rice sheath blight (setting [6]) were 23.8% and 34.9%, respectively. The inhibition of growth at 50 mg/kg in [2] stood at 26.5%; in [3] it was 15.8%; with Cucumber fusarium wilt, 0%; in the data set on Potato late blight, 29.6%; in the data set with Sclerotinia rot of colza, 36.7%. In addition, in [4] (5 mg/kg), the “insecticidal activity against aphides compared with pymetrozine” value is reported as “equivalent to the insecticidal activity of pymetrozine”. Moreover, the mortality at 5 mg/kg in data set [4] (setting [7]) was 20%. The values for the mortality at 10 mg/kg in [4] (setting [7]) and in data set [5] were 100% and 35%, respectively. For the same molecule, the mortality at 100 mg/kg in [4] (setting [7]) was 100%. In addition, the mortality at 600 mg/kg in [4] (setting [7]) was determined as 100%; in the data set with Maize borers, 10%; in the data set on Cotton bollworms it was 30%. Besides, the “Mortalities (%) Armyworms” value with Armyworms was 15%.
`CCS(=O)(=O)N(N1CC(C)=NNC1=O)S(=O)(=O)CC` [Ib-2, n-(ethylsulfonyl)-N-(6-methyl-3-oxo-2,3-dihydro-1,2,4-triazin-4(5H)-yl)-ethylsulfonamide]: the inhibition at 50 mg/kg amounted to 16.7% in data set [1]; 58.6% in the data set on Apple ring rot; 27.8% in the data set with Rice bakanae disease (setting [6]); 13.3% with Wheat head blight; 61.4% in the data set on Wheat sheath blight; 12.5% in the data set with Watermelon anthracnose (setting [6]). Besides, the values for the inhibition at 50 mg/kg in the data set with Tomato early blight and in the data set on Rice sheath blight (setting [6]) were 33.3% and 27%, respectively. Besides, the inhibition of growth at 50 mg/kg in data set [2] was determined as 38.8%; in data set [3], 15.8%; in the data set on Cucumber fusarium wilt, 10%; in the data set on Potato late blight, 18.5%; in the data set with Sclerotinia rot of colza it was 48.3%. The values for the mortality at 600 mg/kg (in data set [4] (setting [7]); in the data set with Maize borers; with Cotton bollworms) were 85%, 5% and 25%, respectively. The “Mortalities (%) Armyworms” value in the data set with Armyworms was found to be 5%. The mortality at 10 mg/kg in data set [5] was 15%.

Values taken from US11203577B2, “Sulfonyl-structure-containing triazinone derivatives, their preparation methods and their uses in insect killing and/or bacterium killing” (Nankai University, priority 2017, dated 2021).
